This passage reports MIC and IC50 results from ChEMBL document CHEMBL1146662, “Novel inhibitors of bacterial protein synthesis: structure-activity relationships for 1,8-naphthyridine derivatives incorporating position 3 and 4 variants” (Bioorg Med Chem Lett, 2004).

Converted amounts (≈) assume the structure as drawn.

One experiment concerns Escherichia coli. In words: Antibacterial activity against Escherichia coli. In kind it is functional.
`NCCNc1ccnc2nc(N3CCCC3)c(F)cc12`: the MIC is greater than 128 µg/mL.

In the next experiment the test system is Escherichia coli. Nature of the experiment: Antibacterial activity against Escherichia coli in presence of permeabilizer and EDTA. The experiment is classed as functional.
On to `NCCNc1ccnc2nc(N3CCCC3)c(F)cc12`, for which the MIC was 32 µg/mL.

Biological target in a further experiment: not listed separately
Nature of the experiment: Inhibitory concentration against luciferase synthesis in Streptococcus pneumoniae. The experiment is classed as functional.
For orientation: IC50 means the concentration that gives 50% inhibition. Regarding `OCCNc1ccnc2nc(N3CCCC3)c(F)cc12`, the concentration for half-maximal inhibition (IC50) came out at 91 µM.

With `CCOC(=O)c1cnc2nc(N3CCCC3)c(F)cc2c1O`, the 50% inhibitory concentration (IC50) was greater than 100 µM.

`O=C(O)c1cnc2nc(N3CCCC3)c(F)cc2c1O`: the IC50 is 10 µM.

Compound `Fc1cc2c(N3CCNCC3)ccnc2nc1N1CCCC1` yielded an IC50 greater than 100 µM.

As for `CC(C)CCNC(=O)c1cnc2nc(N3CCC(N)C3)c(F)cc2c1O` (configuration not stated), the half-maximal inhibitory concentration (IC50) was 25 µM.

`OCc1cnc2nc(N3CCCC3)c(F)cc2c1O` registered a concentration for half-maximal inhibition (IC50) greater than 100 µM.

As to `NC(=O)CNc1ccnc2nc(N3CCCC3)c(F)cc12`, the IC50 was 82 µM.

For the compound `CC(C)NC(=O)c1cnc2nc(N3CCC(N)C3)c(F)cc2c1O` (configuration not stated), the concentration for half-maximal inhibition (IC50) is greater than 100 µM.

Regarding `CN(C)CCN(C)c1ccnc2nc(N3CCCC3)c(F)cc12`, the half-inhibitory concentration (IC50) came to 18 µM.

Take `NC1CCN(c2nc3ncc(C(=O)O)c(O)c3cc2F)C1` (configuration not stated): the IC50 worked out at 5 µM.

On to `COCCNc1ccnc2nc(N3CCCC3)c(F)cc12`, for which the concentration for half-maximal inhibition (IC50) was determined as 39 µM.

The compound `CC(=O)c1cnc2nc(N3CCC(N)C3)c(F)cc2c1O` (configuration not stated) yielded an IC50 of 50 µM.

`NC1CCN(c2nc3ncc(CNCCCc4ccccc4)c(O)c3cc2F)C1` (configuration not stated) had a half-maximal inhibitory concentration (IC50) of 10 µM.

On to `Oc1c(CNCc2ccccc2)cnc2nc(N3CCCC3)c(F)cc12`, for which the half-maximal inhibitory concentration (IC50) is greater than 100 µM.

Regarding `NC1CCN(c2nc3ncc(CNc4ccccc4)c(O)c3cc2F)C1` (configuration not stated), the midpoint of inhibition, the IC50, lay at 54 µM.

`CC(Nc1ccnc2nc(N3CCCC3)c(F)cc12)c1ccccc1` (configuration not stated) yielded a concentration for half-maximal inhibition (IC50) greater than 100 µM.

On to `O=Cc1cnc2nc(N3CCCC3)c(F)cc2c1O`, for which the IC50 was greater than 100 µM.

For `NC1CCN(c2nc3ncc(CNCc4ccccc4)c(O)c3cc2F)C1` (configuration not stated), the half-maximal inhibitory concentration (IC50) stood at 25 µM.

Consider `O=C(O)CNc1ccnc2nc(N3CCCC3)c(F)cc12`, for which the IC50 is greater than 100 µM.

Compound `NCCNc1ccnc2nc(N3CCCC3)c(F)cc12` displayed an IC50 of 11 µM.

For `CCCNc1ccnc2nc(N3CCCC3)c(F)cc12`, the IC50 is 19 µM.

Compound `NNc1ccnc2nc(N3CCCC3)c(F)cc12` came in with a half-maximal inhibitory concentration (IC50) of 89 µM.

Compound `CC(C)CCN(C)C(=O)c1cnc2nc(N3CCC(N)C3)c(F)cc2c1O` (configuration not stated) registered an IC50 greater than 100 µM.

`O=C(NO)c1cnc2nc(N3CCCC3)c(F)cc2c1O`: the half-inhibitory concentration (IC50) was greater than 100 µM.

`CCN(CC)CCCNCc1cnc2nc(N3CCC(N)C3)c(F)cc2c1O` (configuration not stated) displayed an IC50 of 10 µM.

For `Oc1ccnc2nc(N3CCCC3)c(F)cc12`, the IC50 is greater than 100 µM.

For `NC(=O)c1cnc2nc(N3CCC(N)C3)c(F)cc2c1O` (configuration not stated), the IC50 came out at 23 µM.

Take `CCOC(=O)c1cnc2nc(N3CCC(N)C3)c(F)cc2c1O` (configuration not stated): the IC50 was found to be 20 µM.

`CN(C)CCNCc1cnc2nc(N3CCCC3)c(F)cc2c1O` showed a concentration for half-maximal inhibition (IC50) greater than 100 µM.

Compound `Oc1c(CNc2ccccc2)cnc2nc(N3CCCC3)c(F)cc12` registered a half-inhibitory concentration (IC50) greater than 100 µM.

The next experiment relates to Haemophilus influenzae. In words: Antibacterial activity against Haemophilus influenzae GYR 1435. In kind it is functional.
The compound `O=C(O)c1cnc2nc(N3CCCC3)c(F)cc2c1O` yielded an MIC of 1 µg/mL (≈ 3.61 µM).

In turn, `NC1CCN(c2nc3ncc(C(=O)O)c(O)c3cc2F)C1` (configuration not stated) came in with an MIC of 4 µg/mL (≈ 13.7 µM).

As to `C[C@H]1COc2c(N3CCN(C)CC3)c(F)cc3c(=O)c(C(=O)O)cn1c23.C[C@H]1COc2c(N3CCN(C)CC3)c(F)cc3c(=O)c(C(=O)O)cn1c23.O` [LEVOFLOXACIN], the MIC is 0.015 µg/mL.

A further experiment relates to Streptococcus pneumoniae. In words: Antibacterial activity against Quinolone-resistant Streptococcus pneumoniae 7257. The experiment is classed as functional.
For `O=C(O)c1cnc2nc(N3CCCC3)c(F)cc2c1O`, the MIC came out at 4 µg/mL (≈ 14.4 µM).

For `NC1CCN(c2nc3ncc(C(=O)O)c(O)c3cc2F)C1` (configuration not stated), the MIC came to 32 µg/mL (≈ 109 µM).
